Reference: patent US11827628B2, “Compositions and methods for inhibition of the JAK pathway” (Rigel Pharmaceuticals, Inc., priority 2005, dated 2023)

Tested on: up-regulation of ICAM-1 (CD54) by IFNγ in U937 human monocytic cells
Assay: U937 IFNγ ICAM1 FACS Assay
Format: cell-based
Conditions: Homo sapiens, U-937, U937 cells stimulated with IFNγ, ICAM-1 expression by FACS; read-out: IC50, Example 44
Procedure, shortened: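 U937 cells in 10% FCS RPMI were preincubated 30 min at 37 °C with an 8-point, 3-fold compound dilution series in duplicate, then stimulated with IFNγ for 18–24 h. Surface ICAM-1 was stained with APC anti-ICAM-1 and read by flow cytometry as geometric mean on live-gated cells. EC50 was derived.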

IC50 [nM]	SMILES
3260	Cc1ccc(Nc2ncc(C)c(Nc3ccc(OCC(=O)N(C)C)c(F)c3)n2)cc1S(N)(=O)=O [Compound I-139, N2-(3-Aminosulfonyl-4-methylphenyl)-N4-(4-dimethylaminocarbonylmethoxy-3-fluorophenyl)-5-methyl-2,4-pyrimidinediamine]
5070	N#CCOc1ccc(Nc2nc(Nc3ccc(S(N)(=O)=O)cc3)ncc2F)cc1F [Compound I-44, N2-(4-Aminosulfonylphenyl)-N4-(4-cyanomethoxy-3-fluorophenyl)-5-fluoro-2,4-pyrimidinediamine]
681	Cc1ccc(Nc2ncc(F)c(NCCc3ccc(-c4ccncc4)cc3)n2)cc1S(N)(=O)=O [III-77, N2-(3-Aminosulfonyl-4-methylphenyl)-5-fluoro-N4-[4-(4-pyridinyl)phenethyl]-2,4-pyrimidinediamine]
3780	Cc1ccc(Nc2ncc(F)c(Nc3ccc(OCC(N)=O)c(Cl)c3)n2)cc1S(N)(=O)=O [Compound I-99, N4-(4-Aminocarbonylmethoxy-3-chlorophenyl)-N2-(3-aminosulfonyl-4-methylphenyl)-5-fluoro-2,4-pyrimidinediamine]
1130	Cc1ccc(Nc2ncc(F)c(Nc3ccc(CCOC(N)=O)cc3)n2)cc1S(N)(=O)=O [III-53, N4-{4-[2-(Aminocarbonyloxy)ethyl]phenyl}-N2-(3-aminosulfonyl-4-methylphenyl)-5-fluoro-2,4-pyrimidinediamine]
55.6	Cc1cc(Nc2nc(Nc3ccc(C)c(S(N)(=O)=O)c3)ncc2F)ccc1CCC#N [III-19, N2-(3-Aminosulfonyl-4-methylphenyl)-N4-[4-(2-cyanoethyl)-3-methylphenyl]-5-fluoro-2,4-pyrimidinediamine]
424	COc1ccc(Nc2ncc(F)c(Nc3ccc(OCC#N)cc3)n2)cc1S(N)(=O)=O [Compound I-56, N2-(3-Aminosulfonyl-4-methoxyphenyl)-N4-(4-cyanomethoxyphenyl)-5-fluoro-2,4-pyrimidinediamine]
2990	CN(C)C(=O)COc1ccc(Nc2nc(Nc3ccc(S(N)(=O)=O)cc3)ncc2F)cc1Cl [Compound I-131, N2-(4-Aminosulfonylphenyl)-N4-(3-chloro-4-dimethylaminocarbonylmethoxyphenyl)-5-fluoro-2,4-pyrimidinediamine]
3330	Cc1cc(Nc2nc(Nc3cccc(S(N)(=O)=O)c3)ncc2F)ccc1CCC#N [III-20, N2-(3-Aminosulfonylphenyl)-N4-[4-(2-cyanoethyl)-3-methylphenyl]-5-fluoro-2,4-pyrimidinediamine]
759	COc1cc(Nc2nc(Nc3ccc(C)c(S(N)(=O)=O)c3)ncc2F)ccc1OCC#N [Compound I-47, N2-(3-Aminosulfonyl-4-methylphenyl)-N4-(4-cyanomethoxy-3-methoxyphenyl)-5-fluoro-2,4-pyrimidinediamine]
27400	NC(=O)COc1ccc(Nc2nc(Nc3ccc(S(N)(=O)=O)cc3)ncc2F)cc1Cl [Compound I-97, N4-(4-Aminocarbonylmethoxy-3-chlorophenyl)-N2-(4-aminosulfonylphenyl)-5-fluoro-2,4-pyrimidinediamine]
1640	Cc1ccc(Nc2ncc(C)c(Nc3ccc(OCC(=O)N(C)C)c(Cl)c3)n2)cc1S(N)(=O)=O [Compound I-136, N2-(3-Aminosulfonyl-4-methylphenyl)-N4-(3-chloro-4-dimethylaminocarbonylmethoxyphenyl)-5-methyl-2,4-pyrimidinediamine]
66	Cc1cnc(Nc2cccc(S(N)(=O)=O)c2)nc1Nc1ccc(OCC#N)cc1 [Compound I-58, N2-(3-Aminosulfonylphenyl)-N4-(4-cyanomethoxyphenyl)-5-methyl-2,4-pyrimidinediamine]
11000	NC(=O)COc1ccc(Nc2nc(Nc3cccc(S(N)(=O)=O)c3)ncc2F)cc1Cl [Compound I-98, N4-(4-Aminocarbonylmethoxy-3-chlorophenyl)-N2-(3-aminosulfonylphenyl)-5-fluoro-2,4-pyrimidinediamine]
544	N#CCCc1ccc(Nc2nc(Nc3cccc(S(N)(=O)=O)c3)ncc2F)cc1F [III-18, N2-(3-Aminosulfonylphenyl)-N4-[4-(2-cyanoethyl)-3-fluorophenyl]-5-fluoro-2,4-pyrimidinediamine]
1590	NC(=O)OCCc1ccc(Nc2nc(Nc3cccc(S(N)(=O)=O)c3)ncc2F)cc1 [III-54, N4-{4-[2-(Aminocarbonyloxy)ethyl]phenyl}-N2-(3-aminosulfonylphenyl)-5-fluoro-2,4-pyrimidinediamine]

IC50 [nM]	SMILES
838	CN(C)C(=O)OCCc1ccc(Nc2nc(Nc3cccc(S(N)(=O)=O)c3)ncc2F)cc1 [III-57, N2-(3-Aminosulfonylphenyl)-N4-{4-[2-(dimethylaminocarbonyloxy)ethyl]phenyl}-5-fluoro-2,4-pyrimidinediamine]
29600	Cc1cnc(Nc2ccc(S(N)(=O)=O)cc2)nc1Nc1ccc(OCC(=O)N(C)C)c(F)c1 [Compound I-137, N2-(4-Aminosulfonylphenyl)-N4-(4-dimethylaminocarbonylmethoxy-3-fluorophenyl)-5-methyl-2,4-pyrimidinediamine]
2620	CNC(=O)COc1ccc(Nc2nc(Nc3ccc(C)c(S(N)(=O)=O)c3)ncc2C)cc1F [Compound I-156, N2-(3-Aminosulfonyl-4-methylphenyl)-N4-(3-fluoro-4-methylaminocarbonylmethoxyphenyl)-5-methyl-2,4-pyrimidinediamine]
444	N#CCCc1ccc(Nc2nc(Nc3cccc(S(N)(=O)=O)c3)ncc2F)cc1Cl [III-22, N2-(3-Aminosulfonylphenyl)-N4-[3-chloro-4-(2-cyanoethyl)phenyl]-5-fluoro-2,4-pyrimidinediamine]
1380	Cc1cc2ccc(CNc3nc(Nc4cccc(S(N)(=O)=O)c4)ncc3F)cc2[nH]1 [Compound X-3]
4590	Cc1ccc(Nc2ncc(F)c(Nc3cccc(OC4CCN(C)CC4)c3)n2)cc1S(N)(=O)=O [II-2, N2-(3-Aminosulfonyl-4-methylphenyl)-5-fluoro-N4-{3-[(1-methylpiperidin-4-yl)oxy]phenyl}-2,4-pyrimidinediamine]
6390	Cc1ccc(Nc2ncc(F)c(Nc3ccc(OC4CCN(C)CC4)c(C(F)(F)F)c3)n2)cc1S(N)(=O)=O [II-6, N2-(3-Aminosulfonyl-4-methylphenyl)-5-fluoro-N4-{4-[(1-methylpiperidin-4-yl)oxy]-3-trifluoromethylphenyl}-2,4-pyrimidinediamine]
68700	N#CCOc1ccc(Nc2nc(Nc3ccc(S(N)(=O)=O)cc3)ncc2F)cc1-c1ccn(CC#N)n1 [Compound I-52, N2-(4-Aminosulfonylphenyl)-N4-[4-cyanomethoxy-3-(1-cyanomethylpyrazol-3-yl)phenyl]-5-fluoro-2,4-pyrimidinediamine]
118	Cc1ccc(Nc2ncc(F)c(Nc3ccc(OCc4cccnc4)cc3)n2)cc1S(N)(=O)=O [Compound I-178, N2-(3-Aminosulfonyl-4-methylphenyl)-5-fluoro-N4-[4-(3-pyridylmethoxy)phenyl]-2,4-pyrimidinediamine]
3930	Cc1ccc(Nc2ncc(C)c(Nc3ccc(OCC(N)=O)cc3)n2)cc1S(N)(=O)=O [Compound I-110, N4-(4-Aminocarbonylmethoxyphenyl)-N2-(3-aminosulfonyl-4-methylphenyl)-5-methyl-2,4-pyrimidinediamine]
3130	Cc1ccc(Nc2nc(Nc3cccc(S(N)(=O)=O)c3)ncc2F)cc1OCCN1CCOCC1 [Compound I-203, N2-(3-Aminosulfonylphenyl)-5-fluoro-N4-[4-methyl-3-(2-morpholinoethyloxy)phenyl]-2,4-pyrimidinediamine]
447	NS(=O)(=O)c1cccc(Nc2ncc(F)c(NCCc3ccc(-c4ccncc4)cc3)n2)c1 [III-76, N2-(3-Aminosulfonylphenyl)-5-fluoro-N4-[4-(4-pyridinyl)phenethyl]-2,4-pyrimidinediamine]
3930	Cc1ccc(Nc2nc(Nc3ccc(C)c(S(N)(=O)=O)c3)ncc2F)cc1OCCN1CCOCC1 [Compound I-204, N2-(3-Aminosulfonyl-4-methylphenyl)-5-fluoro-N4-[4-methyl-3-(2-morpholinoethyloxy)phenyl]2,4-pyrimidinediamine]
2940	Cc1cc(Nc2nc(Nc3ccc(S(N)(=O)=O)cc3)ncc2F)cc(C)c1N1CCN(C)CC1 [IX-44, N2-(4-Aminosulfonylphenyl)-N4-[3,5-dimethyl-4-(4-methylpiperazin-1-yl]phenyl)-5-fluoro-2,4-pyrimidinediamine]
3240	Cc1cnc(Nc2ccc(S(N)(=O)=O)cc2)nc1Nc1ccc(OCC(=O)N(C)C)c(Cl)c1 [Compound I-134, N2-(4-Aminosulfonylphenyl)-N4-(3-chloro-4-dimethylaminocarbonylmethoxyphenyl)-5-methyl-2,4-pyrimidinediamine]

Same assay, conditions: U937 cells stimulated with IFNγ; ICAM-1 expression by FACS; read-out: IC50, Example 44

IC50 [nM]	SMILES
14500	COc1ccc(Nc2nc(Nc3cccc(S(=O)(=O)NN4CCC(C)CC4)c3)ncc2F)cc1Cl [VI-9, N4-(3-Chloro-4-methoxyphenyl)-5-fluoro-N2-[3-(4-methylpipendin-1-yl)aminosulfonylphenyl]-2,4-pyrimidinediamine]
2420	CNS(=O)(=O)c1cc(Nc2ncc(F)c(Nc3cccc(-c4cnco4)c3)n2)ccc1C [IV-4, 5-Fluoro-N2-[3-(N-methylaminosulfony)-4-methylphenyl]-N4-[3-(1,3-oxazol-5-yl)phenyl]-2,4-pyrimidinediamine]
13600	NS(=O)(=O)c1cccc(Nc2ncc(F)c(Nc3ccc(CN4CCS(=O)(=O)CC4)cc3)n2)c1 [III-110, N2-(3-Aminosulfonylphenyl)-5-fluoro-N4-{4-[(1,1-dioxothiomorpholin-4-yl-)methyl]phenyl}-2,4-pyrimidinediamine]
531	COc1ccc(Nc2ncc(F)c(Nc3ccc(CN4CCSCC4)cc3)n2)cc1S(N)(=O)=O [III-109, N2-(3-Aminosulfonyl-4-methyoxyphenyl)-5-fluoro-N4-(4-thiomorpholinomethylenephenyl)-2,4-pyrimidinediamine]
